Assay [1] deals with Protein-tyrosine kinase 6 (Homo sapiens, UniProt Q13882). Put plainly: Selectivity interaction (Kinase panel (Z-LYTE Assay)) EUB0001632a PTK6. The note with it: at 10 µM.
Assay [2] addresses T1, Histone-lysine N-methyltransferase SMYD3 (Homo sapiens) (UniProt Q9H7B4).
T1 sequence (whole entry): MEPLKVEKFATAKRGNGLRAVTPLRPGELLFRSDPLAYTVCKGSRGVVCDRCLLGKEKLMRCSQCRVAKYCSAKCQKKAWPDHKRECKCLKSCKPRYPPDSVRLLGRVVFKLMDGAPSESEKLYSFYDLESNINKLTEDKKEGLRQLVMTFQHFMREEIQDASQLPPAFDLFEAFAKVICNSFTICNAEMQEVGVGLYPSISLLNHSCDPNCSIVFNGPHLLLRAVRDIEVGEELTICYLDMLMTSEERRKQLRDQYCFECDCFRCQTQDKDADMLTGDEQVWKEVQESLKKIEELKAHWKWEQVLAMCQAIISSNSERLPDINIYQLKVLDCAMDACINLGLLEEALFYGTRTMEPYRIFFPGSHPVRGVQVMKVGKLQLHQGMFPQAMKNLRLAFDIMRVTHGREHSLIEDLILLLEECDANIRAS
Put plainly: Selectivity interaction (Methyltransferase screen (radiometric assays, panel of 8 PRMTs, 21 protein lysine methyltransferases, 3 DNA methyltransferases, and one RNA methyltransferase)) EUB0000271b SMYD3.

The target in assay [3] is Casein kinase I isoform alpha (Homo sapiens, UniProt P48729). Put plainly: Selectivity interaction (SelectScreen profiling (Invitrogen)) EUB0000607a CSNK1A1. The settings on record: at 2 µM.
Chain of Casein kinase I isoform alpha (P48729 2-337 limits assumed): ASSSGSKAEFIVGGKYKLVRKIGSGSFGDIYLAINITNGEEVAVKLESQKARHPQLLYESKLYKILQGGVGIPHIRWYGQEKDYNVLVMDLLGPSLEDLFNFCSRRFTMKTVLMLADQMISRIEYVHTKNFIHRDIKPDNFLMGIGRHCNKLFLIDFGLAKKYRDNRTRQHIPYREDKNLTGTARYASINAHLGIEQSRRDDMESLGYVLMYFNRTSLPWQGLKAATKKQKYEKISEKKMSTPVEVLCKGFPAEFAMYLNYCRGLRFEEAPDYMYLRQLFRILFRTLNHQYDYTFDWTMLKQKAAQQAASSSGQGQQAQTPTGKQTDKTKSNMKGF
Assay [4] concerns the target Tyrosine-protein kinase Lyn (Homo sapiens, UniProt P07948). Put plainly: Selectivity interaction (SelectScreen profiling (Invitrogen)) EUB0000607a LYN. The note with it: at 2 µM.
Assay [5] deals with Serine/threonine-protein kinase N2 (Homo sapiens, UniProt Q16513). Put plainly: Selectivity interaction (KinomeScan (DiscoverX)) EUB0000607a PKN2. The note with it: at 10 µM.
For assay [6], the target named is Wee1-like protein kinase 2 (Homo sapiens) (UniProt P0C1S8). Description: Selectivity interaction (KinomeScan (DiscoverX)) EUB0000666a WEE2. The note with it: at 10 µM.
Chain of Wee1-like protein kinase 2 (Homo sapiens) (P0C1S8 whole entry, looked up): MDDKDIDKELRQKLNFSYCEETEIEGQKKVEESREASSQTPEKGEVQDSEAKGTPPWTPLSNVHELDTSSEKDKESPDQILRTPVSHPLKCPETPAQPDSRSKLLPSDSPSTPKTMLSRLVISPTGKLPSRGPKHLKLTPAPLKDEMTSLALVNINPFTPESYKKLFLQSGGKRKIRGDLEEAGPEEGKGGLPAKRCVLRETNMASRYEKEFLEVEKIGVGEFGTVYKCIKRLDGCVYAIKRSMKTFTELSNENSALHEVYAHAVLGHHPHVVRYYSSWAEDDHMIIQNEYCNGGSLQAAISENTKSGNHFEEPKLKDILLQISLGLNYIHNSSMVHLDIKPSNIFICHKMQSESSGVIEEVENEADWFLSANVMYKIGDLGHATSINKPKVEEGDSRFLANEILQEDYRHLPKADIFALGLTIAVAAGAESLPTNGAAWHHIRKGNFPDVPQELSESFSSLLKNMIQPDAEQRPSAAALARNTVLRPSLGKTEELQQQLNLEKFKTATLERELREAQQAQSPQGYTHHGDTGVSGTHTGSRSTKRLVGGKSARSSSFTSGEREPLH
Assay [7] deals with Calcium/calmodulin-dependent protein kinase type II subunit alpha (Homo sapiens, UniProt Q9UQM7). Description: Selectivity interaction (KinomeScan (DiscoverX)) EUB0000655a CAMK2A. The settings on record: at 10 µM.
Chain of Calcium/calmodulin-dependent protein kinase type II subunit alpha (Q9UQM7 whole entry): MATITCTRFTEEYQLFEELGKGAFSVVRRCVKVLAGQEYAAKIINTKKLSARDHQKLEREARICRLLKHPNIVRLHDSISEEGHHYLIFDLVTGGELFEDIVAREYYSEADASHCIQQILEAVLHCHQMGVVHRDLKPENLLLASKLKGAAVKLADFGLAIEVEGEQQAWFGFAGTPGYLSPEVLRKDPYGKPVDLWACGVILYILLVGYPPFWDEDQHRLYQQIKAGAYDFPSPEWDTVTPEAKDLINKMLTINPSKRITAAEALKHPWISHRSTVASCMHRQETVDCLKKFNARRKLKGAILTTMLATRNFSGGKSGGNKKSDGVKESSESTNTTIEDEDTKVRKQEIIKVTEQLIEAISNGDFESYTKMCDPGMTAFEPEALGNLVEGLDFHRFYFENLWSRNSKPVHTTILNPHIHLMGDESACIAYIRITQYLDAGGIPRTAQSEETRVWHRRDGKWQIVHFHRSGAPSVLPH
Assay [8] deals with Serine/threonine-protein kinase 33 (Homo sapiens) (UniProt Q9BYT3). Description: Selectivity interaction (KinomeScan (DiscoverX)) EUB0001079a STK33. The settings on record: at 1 µM.
Chain of Serine/threonine-protein kinase 33 (Homo sapiens) (Q9BYT3 whole entry, looked up): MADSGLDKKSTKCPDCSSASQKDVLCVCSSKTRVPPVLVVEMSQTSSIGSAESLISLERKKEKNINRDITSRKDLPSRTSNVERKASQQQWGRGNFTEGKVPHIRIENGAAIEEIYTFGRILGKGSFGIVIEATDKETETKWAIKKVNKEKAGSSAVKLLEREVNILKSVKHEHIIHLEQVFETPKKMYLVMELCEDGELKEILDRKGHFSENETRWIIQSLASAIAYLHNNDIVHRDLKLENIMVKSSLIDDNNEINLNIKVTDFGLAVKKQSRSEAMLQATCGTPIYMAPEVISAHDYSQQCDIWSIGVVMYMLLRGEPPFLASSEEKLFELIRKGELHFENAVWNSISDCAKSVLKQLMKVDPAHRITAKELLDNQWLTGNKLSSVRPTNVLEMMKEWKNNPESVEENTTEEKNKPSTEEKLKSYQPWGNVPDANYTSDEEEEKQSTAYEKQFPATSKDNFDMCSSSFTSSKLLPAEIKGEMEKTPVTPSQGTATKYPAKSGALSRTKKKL
Assay [9] deals with Tyrosine-protein kinase HCK (Homo sapiens) (UniProt P08631). Put plainly: Selectivity interaction (KinomeScan (DiscoverX)) EUB0001049a HCK. The settings on record: at 1 µM.
Chain of Tyrosine-protein kinase HCK (Homo sapiens) (P08631 2-526 limits assumed): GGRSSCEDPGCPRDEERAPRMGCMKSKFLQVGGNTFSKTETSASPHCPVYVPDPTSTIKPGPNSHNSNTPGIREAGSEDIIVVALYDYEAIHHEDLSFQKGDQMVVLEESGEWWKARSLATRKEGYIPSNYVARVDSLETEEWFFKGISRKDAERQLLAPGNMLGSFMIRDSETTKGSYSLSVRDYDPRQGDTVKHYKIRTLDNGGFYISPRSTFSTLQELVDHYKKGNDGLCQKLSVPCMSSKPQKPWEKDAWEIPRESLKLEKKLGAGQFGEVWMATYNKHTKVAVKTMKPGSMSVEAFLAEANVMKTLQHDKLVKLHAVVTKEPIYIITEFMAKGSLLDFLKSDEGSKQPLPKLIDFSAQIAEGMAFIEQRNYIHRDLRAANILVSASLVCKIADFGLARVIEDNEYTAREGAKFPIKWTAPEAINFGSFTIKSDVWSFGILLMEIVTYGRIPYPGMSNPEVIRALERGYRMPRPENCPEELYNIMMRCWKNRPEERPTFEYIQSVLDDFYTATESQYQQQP
Assay [10] concerns the target Serine/threonine-protein kinase 17A (Homo sapiens, UniProt Q9UEE5).
Assay [11] has as its target Cyclin-dependent kinase 9 (Homo sapiens, UniProt P50750). Description: Selectivity interaction (KinomeScan (DiscoverX)) EUB0000045b CDK9.
For assay [12], the target named is T2, Ephrin type-A receptor 3 (Homo sapiens) (UniProt P29320).
T2 sequence (whole entry): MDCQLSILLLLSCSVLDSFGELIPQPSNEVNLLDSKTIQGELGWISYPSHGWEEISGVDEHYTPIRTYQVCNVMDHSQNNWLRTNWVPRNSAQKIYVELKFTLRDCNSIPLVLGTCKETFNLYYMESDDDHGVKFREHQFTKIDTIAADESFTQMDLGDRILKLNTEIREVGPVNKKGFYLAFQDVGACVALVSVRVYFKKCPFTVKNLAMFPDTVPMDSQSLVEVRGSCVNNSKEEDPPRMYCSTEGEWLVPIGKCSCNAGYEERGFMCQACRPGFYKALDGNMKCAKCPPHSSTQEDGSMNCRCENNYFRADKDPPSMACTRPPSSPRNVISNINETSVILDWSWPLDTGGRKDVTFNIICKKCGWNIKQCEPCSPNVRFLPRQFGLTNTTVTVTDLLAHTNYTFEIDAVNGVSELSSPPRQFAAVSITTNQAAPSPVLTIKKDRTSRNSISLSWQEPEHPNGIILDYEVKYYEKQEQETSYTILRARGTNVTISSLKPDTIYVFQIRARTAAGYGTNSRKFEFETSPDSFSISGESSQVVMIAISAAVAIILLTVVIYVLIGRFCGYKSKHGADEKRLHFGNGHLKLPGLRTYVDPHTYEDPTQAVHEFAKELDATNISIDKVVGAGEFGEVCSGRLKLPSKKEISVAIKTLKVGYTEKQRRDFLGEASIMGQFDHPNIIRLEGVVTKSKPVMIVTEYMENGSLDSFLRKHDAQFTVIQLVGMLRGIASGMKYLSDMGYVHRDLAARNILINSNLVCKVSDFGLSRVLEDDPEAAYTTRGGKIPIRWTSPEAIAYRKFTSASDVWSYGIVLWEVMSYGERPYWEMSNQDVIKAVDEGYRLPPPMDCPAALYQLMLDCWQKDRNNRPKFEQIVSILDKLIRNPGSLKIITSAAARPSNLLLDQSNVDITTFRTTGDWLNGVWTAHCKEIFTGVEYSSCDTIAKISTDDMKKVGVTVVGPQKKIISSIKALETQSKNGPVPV
Put plainly: Selectivity interaction (KinomeScan (DiscoverX)) EUB0000618a EPHA3. The settings on record: at 10 µM.

Assay [13] concerns the target Dual specificity protein kinase CLK3 (Homo sapiens, UniProt P49761). The note with it: at 1 µM.
Assay [14] deals with T3, Aurora kinase A (Homo sapiens) (UniProt O14965).
T3 sequence (whole entry): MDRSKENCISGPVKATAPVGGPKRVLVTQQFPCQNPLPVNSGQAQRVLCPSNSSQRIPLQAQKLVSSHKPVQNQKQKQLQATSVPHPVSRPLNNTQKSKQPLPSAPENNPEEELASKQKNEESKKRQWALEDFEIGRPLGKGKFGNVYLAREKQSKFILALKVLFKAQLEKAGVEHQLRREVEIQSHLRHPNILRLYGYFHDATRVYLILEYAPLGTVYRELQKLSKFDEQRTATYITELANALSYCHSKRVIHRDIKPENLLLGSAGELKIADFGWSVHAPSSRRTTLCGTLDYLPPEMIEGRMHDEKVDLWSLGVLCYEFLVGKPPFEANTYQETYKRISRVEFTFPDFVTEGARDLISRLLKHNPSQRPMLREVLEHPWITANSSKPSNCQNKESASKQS
Description: Selectivity interaction (KinomeScan (DiscoverX)) EUB0000595a STK6. The settings on record: at 10 µM.

Chain of Cyclin-dependent kinase 9 (P50750 whole entry): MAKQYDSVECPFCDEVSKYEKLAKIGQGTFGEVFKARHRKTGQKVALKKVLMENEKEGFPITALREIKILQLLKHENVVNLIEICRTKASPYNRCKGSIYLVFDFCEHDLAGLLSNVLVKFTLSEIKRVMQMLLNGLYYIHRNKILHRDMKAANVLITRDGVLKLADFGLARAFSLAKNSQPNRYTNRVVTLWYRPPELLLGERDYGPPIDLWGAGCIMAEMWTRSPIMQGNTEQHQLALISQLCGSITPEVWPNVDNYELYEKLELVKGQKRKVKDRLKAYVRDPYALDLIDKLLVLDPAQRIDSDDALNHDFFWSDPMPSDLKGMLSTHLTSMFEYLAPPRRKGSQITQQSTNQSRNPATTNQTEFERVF
Chain of Tyrosine-protein kinase Lyn (P07948 2-512 limits assumed): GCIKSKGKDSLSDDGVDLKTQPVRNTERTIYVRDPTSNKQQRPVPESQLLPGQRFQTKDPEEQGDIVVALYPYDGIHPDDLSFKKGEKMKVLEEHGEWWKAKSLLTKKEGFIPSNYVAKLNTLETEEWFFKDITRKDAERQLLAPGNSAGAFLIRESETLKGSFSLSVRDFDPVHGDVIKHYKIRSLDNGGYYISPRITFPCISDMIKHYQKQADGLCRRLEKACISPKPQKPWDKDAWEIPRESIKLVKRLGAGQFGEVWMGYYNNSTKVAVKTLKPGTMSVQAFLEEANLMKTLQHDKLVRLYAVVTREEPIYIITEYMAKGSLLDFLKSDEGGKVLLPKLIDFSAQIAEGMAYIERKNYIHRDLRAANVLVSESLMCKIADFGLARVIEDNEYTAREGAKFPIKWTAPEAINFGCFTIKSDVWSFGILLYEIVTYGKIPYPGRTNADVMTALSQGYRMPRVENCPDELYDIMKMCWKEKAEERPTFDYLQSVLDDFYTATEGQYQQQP
Chain of Protein-tyrosine kinase 6 (Q13882 whole entry, looked up): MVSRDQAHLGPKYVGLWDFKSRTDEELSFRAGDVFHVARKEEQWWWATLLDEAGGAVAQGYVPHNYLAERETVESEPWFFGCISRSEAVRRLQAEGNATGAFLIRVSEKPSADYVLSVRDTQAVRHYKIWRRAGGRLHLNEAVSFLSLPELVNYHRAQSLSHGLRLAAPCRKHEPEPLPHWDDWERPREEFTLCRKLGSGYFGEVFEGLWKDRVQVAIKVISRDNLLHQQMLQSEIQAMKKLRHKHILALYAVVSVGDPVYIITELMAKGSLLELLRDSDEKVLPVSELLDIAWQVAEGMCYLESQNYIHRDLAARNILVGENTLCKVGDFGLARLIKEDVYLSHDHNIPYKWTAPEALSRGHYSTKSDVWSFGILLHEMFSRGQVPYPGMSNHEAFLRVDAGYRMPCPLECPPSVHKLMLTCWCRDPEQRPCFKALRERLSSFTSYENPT
Chain of Dual specificity protein kinase CLK3 (P49761 whole entry, looked up): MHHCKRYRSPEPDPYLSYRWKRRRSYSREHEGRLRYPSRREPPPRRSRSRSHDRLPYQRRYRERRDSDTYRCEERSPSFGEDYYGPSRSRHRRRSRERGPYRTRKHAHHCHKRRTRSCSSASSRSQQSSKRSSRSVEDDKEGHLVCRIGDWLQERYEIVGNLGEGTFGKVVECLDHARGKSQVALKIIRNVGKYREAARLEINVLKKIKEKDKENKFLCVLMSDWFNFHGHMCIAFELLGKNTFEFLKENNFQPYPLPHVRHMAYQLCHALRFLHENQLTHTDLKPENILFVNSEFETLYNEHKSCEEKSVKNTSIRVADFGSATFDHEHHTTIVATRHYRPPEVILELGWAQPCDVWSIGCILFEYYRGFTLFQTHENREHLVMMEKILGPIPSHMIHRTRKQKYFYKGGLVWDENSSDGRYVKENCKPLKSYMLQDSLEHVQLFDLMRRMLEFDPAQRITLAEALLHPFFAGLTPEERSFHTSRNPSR
Chain of Serine/threonine-protein kinase 17A (Q9UEE5 whole entry): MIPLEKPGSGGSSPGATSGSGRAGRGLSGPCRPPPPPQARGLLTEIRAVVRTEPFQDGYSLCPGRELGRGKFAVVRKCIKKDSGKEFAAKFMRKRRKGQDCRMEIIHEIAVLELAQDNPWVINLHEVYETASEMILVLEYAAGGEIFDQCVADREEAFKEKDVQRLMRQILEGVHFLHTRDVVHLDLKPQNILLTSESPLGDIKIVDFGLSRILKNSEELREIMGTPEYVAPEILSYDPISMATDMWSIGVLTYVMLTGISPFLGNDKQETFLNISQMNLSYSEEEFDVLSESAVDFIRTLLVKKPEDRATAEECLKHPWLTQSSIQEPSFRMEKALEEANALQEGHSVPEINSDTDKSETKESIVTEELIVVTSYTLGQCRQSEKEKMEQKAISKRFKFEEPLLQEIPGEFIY

In turn, `Cn1cc(-n2cnc3c(NCc4nc5cc(Cl)c(Cl)cc5[nH]4)nc(N4CCOCC4)nc32)cn1` returned a % of control in [1] of 9.47%.

Turning to `Cc1cc(C)cc([C@@H]2c3cc(C)ccc3NC(=O)CN2C(=O)c2ccc(Br)s2)c1`, the % of activity in assay [2] (at 1 µM) was 100%; in assay [2] (at 10 µM), 98.3%.

As to `CNC(=O)Nc1ccc(-c2nc(N3CC4CCC(C3)O4)c3cnn(C4CCC5(CC4)OCCO5)c3n2)cc1`, the % of inhibition in assay [3] turned out to be 2%; in [4] it was 5%. The molecule also yielded a % of control in assay [5] of 83%.

As to `O=C(NOC[C@H](O)CO)c1ccc(F)c(F)c1Nc1ccc(I)cc1F`, the % of control in [6] worked out at 77%.

`CN(C)CCOc1ccc(-c2nc(-c3ccncc3)c(-c3ccc4c(c3)CC/C4=N\O)[nH]2)cc1`: the % of control in assay [7] came to 88%.

Regarding `Nc1cnc(N2CCc3cc(S(=O)(=O)Nc4c(F)cc(Cl)cc4F)cc(N4CCCC4=O)c32)nc1` [TP-020n], the % of control in assay [8] stood at 80%.

In [9], `COc1cc(Nc2nc(C)cc(-c3cnn4nc(OC)ccc34)n2)cc(C(F)(F)F)c1` showed a % of control of 100%.

`CN1CCN(C(=O)c2ccc3cc2OCCOCCNc2ccn4ncc-3c4n2)CC1` returned an IC50 in assay [10] of 20 µM.

Turning to `C=CC(=O)Nc1cc(-n2c(=O)ccc3cnc4ccc(-c5ccc(NS(C)(=O)=O)cc5)cc4c32)ccc1C`, the % of control in [11] (at 1 µM) was 100%; in assay [11] (at 10 µM) it was 95%.

In the case of `O[C@H]1CC[C@H](Nc2ncc3nc(Nc4c(F)cc(F)cc4F)n([C@H]4CCOC4)c3n2)CC1`, the % of control in assay [12] is 85%.

On to `Cc1ccc(-c2ccc3c(ccc4sc5c(c43)NC[C@@H](C)NC5=O)n2)cn1`, for which the % of inhibition in assay [13] came out at 24%.

`COCC(=O)NC/C=C/c1ccc2ncnc(Nc3ccc(Oc4ccc(C)nc4)c(C)c3)c2c1` [CP-724714] came in with a % of control in [14] of 100%.

(Values after ChEMBL document CHEMBL5465560, “Selectivity Literature for EUbOPEN Chemogenomic Library” (2024).)
